The source of these data is US11549123B2, “Plant EPSP synthases and methods of use” (PIONEER HI-BRED INTERNATIONAL, INC., priority 2015, dated 2023).

Test [1] has as its target T1, Zea mays EPSPS variant L-A at positions 103-107 (Zea mays, UniProt O24566, P106A/T102L).
T1 sequence (O24566 with tags, fused parts or gaps T102L/P106A): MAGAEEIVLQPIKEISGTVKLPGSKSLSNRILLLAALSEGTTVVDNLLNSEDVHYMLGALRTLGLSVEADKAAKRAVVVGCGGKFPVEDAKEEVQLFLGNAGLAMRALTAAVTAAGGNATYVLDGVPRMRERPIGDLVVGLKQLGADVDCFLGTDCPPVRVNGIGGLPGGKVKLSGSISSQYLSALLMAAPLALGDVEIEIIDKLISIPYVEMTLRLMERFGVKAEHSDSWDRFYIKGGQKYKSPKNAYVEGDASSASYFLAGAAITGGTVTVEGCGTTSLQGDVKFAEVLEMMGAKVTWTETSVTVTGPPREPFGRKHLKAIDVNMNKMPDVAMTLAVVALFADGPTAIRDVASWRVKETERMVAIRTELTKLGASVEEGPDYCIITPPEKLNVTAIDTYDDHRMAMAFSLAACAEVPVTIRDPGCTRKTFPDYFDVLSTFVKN
As to the kind of experiment: EPSPS substrate saturation kinetics, maize variant 103L 107A. Type of test: biochemical. The procedure:
EPSPS activity was determined by quantifying the phosphate generated from the EPSPS reaction. Release of inorganic phosphate was coupled to reaction with 2-amino-6-mercapto-7-methylpurine ribonucleoside, catalyzed by purine-nucleoside phosphorylase (M R Webb, Proc. Natl. Acad. Sci. 89:4884-4887, 1992). The absorbance change that occurs was monitored at 360 nm, where the extinction is 11,200 M^−1 cm^−1, with a Spectramax plate reader (Molecular Devices). To determine kinetic parameters, the varied substrate was present at seven concentrations (the eighth being the blank, containing no substrate) ranging from 4 to 400 uM and the unvaried substrate present at saturation. Six microliters of 50-fold concentrated stock solutions of the varied substrate were placed in the wells of the 96-well assay plate and reactions were started with the addition of a mixture containing 25 mM Hepes, pH 7, 100 mM KCl, 0.3 mM 2-amino-6-mercapto-7-methylpurine ribonucleosde, 1 uM (1 unit/ml) purine-nucleoside phosphorylase (Sigma N8264) and 200 uM of the non-varied substrate. Reactions were monitored with a Spectramax plate reader. The Michaelis-Menten kinetics protocol of the Spectramax software was customized for the substrate concentrations used. The software returns values of KM and Vmax using the Lineweaver-Burke transformation of the Michaelis-Menten equation. To determine kcat, Vmax (uM/min) was divided by the enzyme concentration (uM). […] KI was then calculated from the following form of the Michaelis-Menten equation for competitive inhibition: KI=KM[I]/(KM app−KM) KM approximates the dissociation constant of the enzyme-substrate complex while kcat is the rate of conversion of substrate to product when the substrate concentration is saturating. kcat/KM is a widely accepted parameter for catalytic efficiency when substrate concentration is low (˜KM). […] The parameter kcat/KM×KI is used to quantify both catalytic efficiency and insensitivity and thus the overall fitness of the enzyme. […]

Test [2] has as its target T2, Zea mays EPSPS, native, SEQ ID NO:2 (Zea mays, UniProt O24566).
T2 construct: E. coli BL21(DE3), Ni-NTA purified
T2 sequence (O24566 with tags, fused parts or gaps): T1 sequence (O24566 with tags, fused parts or gaps T102L/P106A) with L103T, A107P
The test can be described thus: Substrate saturation analysis with glyphosate (Example 8, global fit to competitive inhibition), native maize. It counts as biochemical. From the text:
Generally, (kcat/KM)*KI is obtained by performing substrate saturation analysis in the absence and presence of inhibitor. However, that analysis takes longer. […] To validate the method, (kcat/KM)*KI was quantified using both methods—traditional (saturation) and the instant method (rapid), for variants of maize 5-enolpyruvylshikimate-3-phosphate synthase (EPSPS) and its competitive inhibitor, glyphosate.
The amino acid sequence of mature Zea mays EPSPS was obtained from GenBank entry CAA44974.1 (SEQ ID NO:2). A nucleotide sequence was created to add an N-terminal methionine and to optimize codon usage for expression in E. coli. The synthesized gene was cloned into an expression vector that provides a T7 promoter driving expression of the protein and a 10× N-terminal histidine tag. Variants selected for this study include native maize EPSPS and variants generated by a gene shuffling cascade described herein. The proteins were expressed in E. coli BL21(DE3) and purified by Ni-NTA resin (Qiagen). Protein concentration was determined by absorbance at 280 nm using an extinction coefficient of 0.676 OD/mg/m L. The proteins were normalized to 0.5 mg/mL for assay.
EPSPS activity was determined by quantifying the phosphate generated by the reaction. Release of phosphate was coupled to reaction with MESG, catalyzed by purine-nucleoside phosphorylase, using standard methods. The absorbance change that occurs was monitored continuously at 360 nm, where the extinction is 11,200 M-1 cm-1, with a Spectramax plate reader (Molecular Devices). […] The enzyme concentration was adjusted so as to generate sufficient signal without exceeding the limit for linear initial reaction rates. The same procedure was repeated with two or three concentrations of glyphosate and the data were processed by non-linear regression analysis with GraphPad Prism (graphpad.com) and globally fitted to the Michaelis-Menten equation for competitive inhibition.
To validate that the rapid method yields an accurate estimation of (kcat/KM)*KI, the results were compared with those obtained by full substrate saturation analysis. […]

Where [3] appears, read: substrate saturation, Zm native.

Molecules are shown by their SMILES. Positions count from the first letter of the chain named.

As to `C=C(OP(=O)(O)O)C(=O)O` [PEP, phosphoenolpyruvate], the kcat in test [1] (PEP varied) was 125; in test [2] (setting [3]), 1036 min⁻¹.

`O=C(O)CNCP(=O)(O)O` [glyphosate, N-phosphonomethylglycine]: the Ki in test [1] was determined as 463 µM; in test [2], 130 nM. For the same molecule, the “(kcat/KM)*KI” value in test [1] (PEP as substrate, glyphosate as inhibitor) is 1143; in test [2] (setting [3]), 12.

One may read the Ki as the equilibrium dissociation constant of an inhibitor or competing ligand from its target.
